In data set [1] the target is T1, récepteurs de la parathyroïde (Rattus norvegicus, UniProt P48442).
T1 construct: from tissue; host or cells: rat parathyroid gland (in vivo)
T1 sequence (P48442 20-1079): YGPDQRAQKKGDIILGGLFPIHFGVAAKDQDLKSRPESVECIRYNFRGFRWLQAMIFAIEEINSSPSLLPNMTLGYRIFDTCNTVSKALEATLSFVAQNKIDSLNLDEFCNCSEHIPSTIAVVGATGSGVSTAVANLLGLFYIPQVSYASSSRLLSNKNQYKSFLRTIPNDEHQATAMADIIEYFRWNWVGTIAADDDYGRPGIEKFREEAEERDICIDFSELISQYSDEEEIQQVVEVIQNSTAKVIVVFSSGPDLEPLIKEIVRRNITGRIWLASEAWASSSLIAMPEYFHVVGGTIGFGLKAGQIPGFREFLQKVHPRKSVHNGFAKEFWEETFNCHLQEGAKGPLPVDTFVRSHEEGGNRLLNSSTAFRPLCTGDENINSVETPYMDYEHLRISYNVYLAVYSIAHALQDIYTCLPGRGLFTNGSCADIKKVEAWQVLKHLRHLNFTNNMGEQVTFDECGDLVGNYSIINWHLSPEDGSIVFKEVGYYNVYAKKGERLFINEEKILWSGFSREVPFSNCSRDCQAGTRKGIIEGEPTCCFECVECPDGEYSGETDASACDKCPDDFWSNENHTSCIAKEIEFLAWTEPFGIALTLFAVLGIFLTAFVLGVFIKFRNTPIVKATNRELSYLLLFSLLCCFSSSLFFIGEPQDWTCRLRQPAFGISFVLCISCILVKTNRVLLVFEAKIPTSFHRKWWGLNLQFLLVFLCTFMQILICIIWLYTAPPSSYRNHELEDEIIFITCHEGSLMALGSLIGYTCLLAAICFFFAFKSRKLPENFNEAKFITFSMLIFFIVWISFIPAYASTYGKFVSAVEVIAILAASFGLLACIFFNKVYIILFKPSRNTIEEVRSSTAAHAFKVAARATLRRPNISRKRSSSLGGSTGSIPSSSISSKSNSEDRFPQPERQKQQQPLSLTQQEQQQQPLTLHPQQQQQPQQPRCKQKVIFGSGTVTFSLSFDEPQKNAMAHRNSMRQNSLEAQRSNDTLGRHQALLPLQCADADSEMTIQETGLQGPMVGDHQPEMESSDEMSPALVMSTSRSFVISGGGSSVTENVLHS
Particulars: experimental trials in the rat; cited from earlier work.

Another data set has as its system glande parathyroïdienne. The settings on record: rat model of chronic renal failure (Wada et al, J. Clin. Invest., 1997); cited from earlier work.
The next data set relates to ostéitis fibrosa. The settings on record: rat (Wada et al, Kidney International, 1998); cited from earlier work.
Another data set concerns the target T2, CaSR de rat (Rattus norvegicus, UniProt P48442).
T2 construct: expressed in transfected cells; host or cells: CHO (Chinese hamster ovary) cells, line CHO(CaSR)
T2 sequence (P48442 20-1079): T1 sequence (P48442 20-1079)
Nature of the data set: Accumulation of tritiated inositol phosphates ([3H]IP) in transfected CHO(CaSR) cells. Type of data set: cell-based. The settings on record: compound 10 µM; for Accumulation d'(^3H)-IP % du taux basal. CHO (CaSR) / activity at 10 µM: basal level in presence of 2 mM Ca^2+ = 100 %; for activity at 10 µM: read-out: Accumulation d'(^3H)-IP % du taux basal. CHO (CaSR); for activation at 10 µM: read-out: Accumulation d'(^3H)-IP % de la réponse 10mM Ca^2+ ± E.S. From the text:
L'ADN complémentaire codant pour le CaSR de rat a été isolé à partir d'une banque ADNc de striatum de rat (Ruat et al, Proc. Natl. Acad. Sci., 1995). Ce récepteur est identique au niveau de sa séquence en acides aminés à celui exprimé dans les autres tissus. Des cellules ovariennes de hamster chinois (CHO) transfectées exprimant le CaSR de rat (CHO(CaSR)) ont été caractérisées et les signaux chimiques (seconds messagers) induits par l'activation de ce récepteur ont été analysés. Ainsi, un test biochimique permettant de mesurer l'accumulation d'inositols phosphates tritiés [^3H]IP en réponse à l'activation du récepteur a été mis au point (Ruat et al, J. Biol. Chem., 1996; Ferry et al, Biochem. Biophys. Res. Commun., 1997).
L'activité calcimimétique des composés a été estimée en mesurant l'accumulation d'inositols phosphates tritiés induite par 10 µM de chacun des composés en présence de 2 mM de Ca^2+ dans les cellules CHO(CaSR) (Ferry et al, Biochem Biophys Res Commun, 1997).
Cette activation a été comparée à celle induite par le composé NPS-R- 568, un calcimimétique de référence et utilisé à une concentration de 10 µM (Tableau 1) (Ferry et al, Biochem Biophys Res Commun, 1997; Nemeth et al, Proc Natl Acad Sci USA, 1997).
Dans le tableau 1, l'activité calcimimétique des composés PHD est comparée à celle d'un composé de référence, le NPS-R-568 utilisé à la même concentration et dans les mêmes conditions expérimentales. Cette activité est exprimée en pourcentage de l'activité de 10 mM de Ca^2+. Les moyennes ± erreurs standards de 2 à 5 manipulations indépendantes sont indiquées. Les expériences ont été réalisées en présence de 2 mM de Ca^2+.
(§1) L'accumulation d'inositols phosphates tritiés est exprimée en pourcentage du taux de base observé en présence de 2 mM Ca^2+ (100 %) dans les cellules CHO(WT*) ou CHO(CaSR).

A further data set deals with cellules CHO(WT*). Kind of data set: Specificity control: [3H]IP accumulation in CHO(WT*) control cells transfected with the plasmid alone, not expressing CaSR. In kind it is cell-based, hamster chinois. The settings on record: compound 10 µM, basal level in presence of 2 mM Ca^2+ = 100 %; for activity at 10 µM: read-out: Accumulation d'(^3H)-IP % du taux basal. CHO (WT*). On the procedure: Les molécules PHD, utilisées à une concentration de 10 µM ne conduisent pas ou peu à l'accumulation d'[^3H]IP dans des cellules CHO(WT*) témoins ce qui suggère leur spécificité d'action vis-à-vis du CaSR (Tableau 2). Les cellules CHO(WT*) ont été tranfectées avec le plasmide seul et n'expriment pas le CaSR.
as §1

In data set [2] the test system is PTH. Particulars: male patients with chronic renal failure (Antansen et al, Kidney International, 1998); cited from earlier work.
For data set [3] the following is noted: clinical trials Phase I - II, NPS Pharmaceutical (Nemeth et al, 1999); cited from earlier work.
For data set [4], the system named is PTH. Particulars: oral route, postmenopausal women with primary hyperparathyroidism (Silverberg et al, 1997); cited from earlier work.
Where [5] appears, read: in presence of 2 mM Ca^2+, mean ± standard error of 2 to 5 independent experiments.

As to `COc1cccc([C@@H](C)NCCCc2ccccc2)c1` [NPS R-467], the “sélectivité vis à vis des récepteurs de la parathyroïde comparativement à ceux de la glande thyroïde” value in data set [1] was “plus sélectif”.

As to `COc1cccc([C@@H](C)NCCCc2ccccc2Cl)c1` [NPS R-568, reference compound], the “réduire la prolifération cellulaire observée dans la glande parathyroïdienne” value in the data set on glande parathyroïdienne is listed as 20-50%. The ostéitis fibrosa entry in the data set with ostéitis fibrosa is reported as “réduit ou élimine”. Moreover, at CaSR de rat, the “Accumulation d'(^3H)-IP % du taux basal. CHO (CaSR)” value is “une forte accumulation” and the activity at 10 µM was determined as 454 ± 33%. On CaSR de rat (setting [5]), the “Accumulation d'(^3H)-IP % de la réponse 10mM Ca^2+ ± E.S.” value was found to be 106 ± 15% and the activation at 10 µM was found to be 100%. For the same compound, in the data set with cellules CHO(WT*), the “Accumulation d'(^3H)-IP % du taux basal. CHO (WT*)” value is “peu ou pas d'accumulation” and the activity at 10 µM amounted to 119 ± 9%. Further, in the data set with PTH [2], the “concentrations de PTH” value is listed as “réduit”. Also, the bio-disponibilité entry in data set [3] is on record as “faible”. Besides, in the data set with PTH [4], the “concentrations de PTH et des ions Ca^2+ libres sériques” value is “abaisser”.

Regarding `CC(NCC(Cc1ccccc1)NCc1cccc(Cl)c1)c1cccc2ccccc12` (stereo not shown) [PHD 312], on CaSR de rat, the “Accumulation d'(^3H)-IP % du taux basal. CHO (CaSR)” value is “une forte accumulation” and the activity at 10 µM was 383 ± 39%. Also, the activation at 10 µM at CaSR de rat (setting [5]) stood at 78 ± 6%. For the same compound, in the data set on cellules CHO(WT*), the “Accumulation d'(^3H)-IP % du taux basal. CHO (WT*)” value is given as “peu ou pas d'accumulation” and the activity at 10 µM was 121 ± 6%.

Turning to `COc1ccc(S(=O)(=O)NC(CNC(C)c2cccc3ccccc23)Cc2ccccc2)cc1OC` (stereo not shown) [PHD 321, N^2(3,4-diméthoxybenzènesulfonyl)-N^1[1-(1-naphtyl)éthyl]-3-phénylpropane-1,2-diamine], on CaSR de rat, the “Accumulation d'(^3H)-IP % du taux basal. CHO (CaSR)” value is reported as “une forte accumulation” and the activity at 10 µM was determined as 446 ± 22%. Also, the activation at 10 µM on CaSR de rat (setting [5]) came out at 97 ± 13%. Besides, in the data set with cellules CHO(WT*), the “Accumulation d'(^3H)-IP % du taux basal. CHO (WT*)” value was “peu ou pas d'accumulation” and the activity at 10 µM is 124 ± 4%.

These data come from EP1235797B1, “ARALKYL-1,2-DIAMINES HAVING CALCIMIMETIC ACTIVITY AND PREPARATION MODE” (CENTRE NATIONAL DE LA RECHERCHE SCIENTIFIQUE (CNRS), priority 1999, dated 2001).
